According to patent publication US12023308B2, “Agents for reversing toxic proteinopathies” (THE BROAD INSTITUTE, INC., priority 2019, dated 2024):

What was measured:
MUC1-fs = MUC1-fs IF in MKD patient iPSC-derived kidney organoids; assay type: cell-based, human; conditions: 10 μM, 72 hours, organoids P1-P3
Experimental: Kidney organoids were immersion-fixed for 15 min in 4% PFA at 4° C. and subsequently frozen in OCT using dry ice and 100% ethanol. Six […] cryostat sections (CM1950, Leica) were thaw-mounted on microscope slides (Fisherbrand™ Superfrost™ Plus, Fisher Scientific) and kept in the cryostat (at −26° C.) for the duration of the sectioning process. Prior to immunostaining, organoid sections were rinsed in PBS for 5 min, incubated for 20 min at room temperature (RT) in PBS blocking solution containing 5% normal donkey serum (530-100ML, EMD Millipore) and 1.5% Tween® 20 (P1379, Sigma-Aldrich), then incubated overnight at 4° C. with primary antibodies diluted in the same blocking solution (1:500, monoclonal Armenian hamster anti-MUC1, Ab80952, Abcam; 1:500, monoclonal Fab-A-VSH anti-fsMUC1, AbD22655.4, Bio-Rad; 1:300 monoclonal Rat anti-E Cadherin [DECMA-1], ab11512, Abcam; 1:500 polyclonal Rabbit anti-Laminin, L9393-100UL, Sigma-Aldrich; 1:500 Na/K-ATPase, ab76020, Abcam; 1:300 Fluorescein labeled Lotus Tetragonolobus Lectin (LTL), FL-1321, Vector laboratories; 1:100, polyclonal, Rabbit anti-TMED9, 21620-1-AP, Proteintech). […]
For a sequence analysis illustration, refer to FIG. 12B. […] MUC1-wt signal intensities were calculated within each WT reference region and averaged for entire section. […]

[1] = Dose response exposure PK study in male 129-ELITE mice; assay type: in vivo, mouse; conditions: single p.o. doses
Experimental: 4) A pharmacokinetic study was performed by Charles River Labs (CRL) (Worcester, Mass., USA) in fed male 129-ELITE mice (study EF-0024-DA-MI) to determine the dose response exposure of BRD-4780, BRD-1365 and BRD-7709 in plasma, kidney, liver and eye. Brain exposure to BRD-4780 at 30 mg/kg was also evaluated A single dose of BRD-4780 was administered at 30.0 mg/kg or 100 mg/kg orally (p.o) in a clear solution of 5% dextrose in water (D5W). For BRD-1365 and BRD-7709, a single dose of either compound was administered at 10.0 mg/kg, 30.0 mg/kg, 50.0 mg/kg or 100 mg/kg orally (p.o) in a clear solution of 5% dextrose in water (D5W). Blood, kidney, liver and eye tissue were collected from n=3 mice per dose group at six time points post p.o. dose administration (1, 2, 6, 10, 16 and 24 hours) with all three compounds. Brain tissue was collected from n=3 mice per dose group at six time points post p.o. dose administration (1, 2, 6, 10, 16 and 24 hours) with BRD-4780 at 30 mg/kg. Plasma obtained by centrifugation and tissue fragments were homogenized. Plasma and tissue drug concentration was determined by LC-MS/MS and reported as drug concentration in ng/mL for plasma and ng/mg for kidney, liver and eye tissue, plotted as the mean±standard deviation concentration for males for BRD-4780 ([…]), BRD-1365 (FIG. 11K) and BRD-7709 (FIG. 11M). Standard pharmacokinetic parameters were calculated for males for BRD-4780 ([…]), BRD-1365 (FIG. 11O) and BRD-7709 (FIG. 11P).

CC(C)[C@@H]1[C@H]2CC[C@H](C2)[C@H]1N (racemic) [BRD-4780, 2-endo-amino-3-exo-isopropylbicyclo[2.2.1]heptane]
MUC1-fs protein in patient kidney organoids (MUC1-fs): cleared the mutant protein from intracellular compartments in all patient organoids
dose proportionality of AUC exposures [1]: not dose proportional
